Results: paper PMC5967629 (Bioorganic & medicinal chemistry, 2018)

Tests used:
[1] = Metabolite identification of 3 in human liver microsomes; type: in vitro ADME; conditions: 3 at 20 μM incubated with human liver microsomes
A-10 cells = type: cell-based; conditions: for microtubule depolymerization activity (in words): A-10 cells, Table 2
Parental SK-OV-3 = test: SRB assay in parental SK-OV-3 cells; type: cell-based; conditions: Homo sapiens, SK-OV-3, read-out: IC50 ± SD Parental SK-OV-3
MDA-MB-435 cancer cells = test: SRB antiproliferative assay in MDA-MB-435 cells; type: cell-based; conditions: for fold less potent than 1 in MDA-MB-435 cells: relative to IC50 of 1; for antiproliferative activity (in words): MDA-MB-435 cells, Table 2

## Cc1nc2c(c(N(C)c3ccc(S(C)(=O)=O)cc3)n1)CCC2 [Compound 6, N-(4-Methylsulfonylphenyl)-N,2-dimethyl-6,7-dihydro-5H-cyclopenta[d]pyrimidin-4-amine]
[1]
  MS Peak Area in 60 min sample, HPLC area: 98,900
A-10 cells
  microtubule depolymerization activity (in words): inactive

## COc1ccc(N(C)c2nc(C)nc3c2CCC3)cc1 [Compound 1]
Parental SK-OV-3
  IC50: 0.0113 ± 0.0002 µM
MDA-MB-435 cancer cells; Homo sapiens, MDA-MB-435, read-out: IC50 ± SD (MDA-MB-435) Cancer cells
  IC50: 0.007 ± 0.0007 µM

## Cc1nc2c(c(N(C)c3ccc4c(c3)CCO4)n1)CCC2 [Compound 9, N-(2,3-Dihydrobenzofuran-5-yl)-N,2-dimethyl-6,7-dihydro-5H-cyclopenta[d]pyrimidin-4-amine]
MDA-MB-435 cancer cells
  fold less potent than 1 in MDA-MB-435 cells: 1.7 fold

## COc1ccc([C@@H](C)N(C)c2nc(C)nc3c2CCC3)cc1 [Compound 14, N-[1(1R)-(4-Methoxylphenyl)ethyl]-N,2-dimethyl-6,7-dihydro-5H-cyclopenta[d]pyrimidin-4-amine]
A-10 cells
  microtubule depolymerization activity (in words): devoid of any microtubule depolymerization activity

## COc1ccc(CN(C)c2nc(C)nc3c2CCC3)cc1 [Compound 12, N-(4-Methoxylphenyl)methyl-N,2-dimethyl-6,7-dihydro-5H-cyclopenta[d]pyrimidin-4-ammonium chloride]
MDA-MB-435 cancer cells
  antiproliferative activity (in words): poor MDA-MB-435 inhibitory activity

## COc1ccc([C@H](C)N(C)c2nc(C)nc3c2CCC3)cc1 [Compound 13, N-[1(1S)-(4-Methoxylphenyl)ethyl]-N,2-dimethyl-6,7-dihydro-5H-yclopenta[d]pyrimidin-4-amine]
A-10 cells
  microtubule depolymerization activity (in words): devoid of any microtubule depolymerization activity

## N-(4-Methoxycyclohexyl)-N,2-dimethyl-6,7-dihydro-5H-cyclopenta[d]pyrimidin-4-amine [Compound 11]
A-10 cells
  microtubule depolymerization activity (in words): devoid of any microtubule depolymerization activity
A-10 cells; read-out: EC50 in A-10 cells, microtubule depolymerizing activity
  EC50: > 10 µM

## Cc1nc2c(c(N(C)c3ccc(N)cc3)n1)CCC2 [Compound 8, N-(4-Aminophenyl)-N,2-dimethyl-6,7-dihydro-5H-cyclopenta[d]pyrimidin-4-amine]
MDA-MB-435 cancer cells
  antiproliferative activity (in words): low activity

## CSc1ccc(N(C)c2nc(C)nc3c2CCC3)cc1 [Compound 3, N-(4-Methiophenyl)-N,2-dimethyl-6,7-dihydro-5H-cyclopenta[d]pyrimidin-4-amine]
[1]
  MS Peak Area in 60 min sample, HPLC area: 2,061,000

## Cc1nc2c(c(N(C)c3ccc(O)cc3)n1)CCC2 [Compound 2, N-(4-Hydroxylphenyl)-N,2-dimethyl-6,7-dihydro-5H-cyclopenta[d]pyrimidin-4-amine]
MDA-MB-435 cancer cells
  antiproliferative activity (in words): low activity

## Cc1nc2c(c(N(C)c3ccc([S+](C)[O-])cc3)n1)CCC2 (stereo not shown) [Compound 5, N-(4-Methylsulfinylphenyl)-N,2-dimethyl-6,7-dihydro-5H-cyclopenta[d]pyrimidin-4-amine]
[1]
  MS Peak Area in 60 min sample, HPLC area: 2,199,500

## CNc1ccc(N(C)c2nc(C)nc3c2CCC3)cc1 [Compound 7, N-(4-Methylaminophenyl)-N,2-dimethyl-6,7-dihydro-5H-cyclopenta[d]pyrimidin-4-amine]
MDA-MB-435 cancer cells
  fold less potent than 1 in MDA-MB-435 cells: 2.9 fold

## COc1ccc(N(C)c2nc(C)nc3c2CCC3)cc1C [Compound 10, N-(3-Methyl-4-methoxylphenyl)-N,2-dimethyl-6,7-dihydro-5H-cyclopenta[d]pyrimidin-4-amine]
MDA-MB-435 cancer cells
  fold less potent than 1 in MDA-MB-435 cells: about 2.6 fold
